System: Rat (male, female)
Assay: Single dose toxicity study
Type: in vivo
Details: rats, administered only once
Method: Compound 1 or 2 of the present invention was administered to rats only once, and the lethal dose thereof was determined.

| Compound | toxicity (single dose) |
| --- | --- |
| C[C@@H]1C[C@H]2[C@@H]3CCC4=CC(=O)C=C[C@]4(C)[C@@]3(F)[C@@H](O)C[C@]2(C)[C@@]1(OC(=O)C1CC1)C(=O)COC(=O)C1CCCCC1 [Compound 2, 9-fluoro-11β,17,21-trihydroxy-16α-methyl-1,4-pregnadiene-3,20-dione 21-cyclohexanecarboxylate 17-cyclopropanecarboxylate] | low toxicity |
| C[C@@H]1C[C@H]2[C@@H]3CCC4=CC(=O)C=C[C@]4(C)[C@@]3(F)[C@@H](O)C[C@]2(C)[C@@]1(OC(=O)C1CC1)C(=O)CO [Compound 1, 9-fluoro-11β,17,21-trihydroxy-16α-methyl-1,4-pregnadiene-3,20-dione 17-cyclopropanecarboxylate] | low toxicity |

From US7214672B2, “Preventives/remedies for inflammatory airway diseases” (Nippon Shinyaku Co., Ltd., priority 2000, dated 2007)
